Laboratory results taken from patent US20220202799A1, “PHARMACEUTICAL FORMULATIONS CONTAINING P2Y14 ANTAGONISTS” (priority 2019, published 2022).
Several values for one entry are separate records, joined by “and”; a condition that tells them apart may be missing. Equal values may be shown once.

Experiment: Effect of pH on solubility of PPTN in aqueous medium
Assay type: physicochemical
Experimental: The effect of pH on the solubility of PPTN in an aqueous medium was analyzed. Solutions of PPTN in either water or phosphate buffer at various pH values were incubated with agitation for 24-48 hours at room temperature then filtered to remove precipitates, and the PPTN concentration of the filtered solution was analyzed.

Cl.O=C(O)c1cc(-c2ccc(C3CCNCC3)cc2)c2ccc(-c3ccc(C(F)(F)F)cc3)cc2c1 [KB-1801.HCl]
[KB-1801.HCl] by HPLC Analysis (solubility) (pH 1.9, 10 mM phosphate buffer, 24-48 h, ~22° C.): 0.0008 mg/mL and 1.6 μM
[KB-1801.HCl] by HPLC Analysis (solubility) (pH 2.8, 10 mM phosphate buffer, 24-48 h, ~22° C.): 0.0255 mg/mL and 50 μM
[KB-1801.HCl] by HPLC Analysis (solubility) (pH 4.8, 0 mM buffer (DIW), >24 h, ~25° C. (from initial sonication)): ~0.1 mg/mL and 195 μM
[KB-1801.HCl] by HPLC Analysis (solubility) (pH 6.6, 10 mM phosphate buffer, 24-48 h, ~22° C.): 0.0001 mg/mL and 0.2 μM
[KB-1801.HCl] by HPLC Analysis (solubility) (pH 8.2, 10 mM phosphate buffer, 24-48 h, ~22° C.): 0.0001 mg/mL and 0.2 μM
